Source: patent US20120142646A1, “Novel Compounds 621” (priority 2006, published 2012)
Where a name gives a salt, the structure may show the parent alone.

What follows are compounds tested against T1, Adrenergic β2 (Homo sapiens, UniProt P07550) (assay: Adrenergic β2 mediated cAMP production in H292 cells (AlphaScreen cAMP detection)). Conditions: Intrinsic Activity as a fraction relative to the maximum activity determined for formoterol.
T1 construct: Adherent H292 cells were removed from tissue culture flasks; endogenous in cells; host or cells: H292 cells
Type: cell-based
Set-up: key to β2 Int Act: fraction of formoterol maximum activity (formoterol = 1)
Outline: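 H292 cells pre-treated 10 min with rolipram (300 μM final), then given agonist for 60 min at room temperature in HBSS/10 mM HEPES pH 7.4, 1.6% DMSO final. Lysate cAMP measured by AlphaScreen against a cAMP standard curve. Four-parameter fit gives pEC50; intrinsic activity relative to formoterol maximum.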

T1 sequence (P07550 whole entry): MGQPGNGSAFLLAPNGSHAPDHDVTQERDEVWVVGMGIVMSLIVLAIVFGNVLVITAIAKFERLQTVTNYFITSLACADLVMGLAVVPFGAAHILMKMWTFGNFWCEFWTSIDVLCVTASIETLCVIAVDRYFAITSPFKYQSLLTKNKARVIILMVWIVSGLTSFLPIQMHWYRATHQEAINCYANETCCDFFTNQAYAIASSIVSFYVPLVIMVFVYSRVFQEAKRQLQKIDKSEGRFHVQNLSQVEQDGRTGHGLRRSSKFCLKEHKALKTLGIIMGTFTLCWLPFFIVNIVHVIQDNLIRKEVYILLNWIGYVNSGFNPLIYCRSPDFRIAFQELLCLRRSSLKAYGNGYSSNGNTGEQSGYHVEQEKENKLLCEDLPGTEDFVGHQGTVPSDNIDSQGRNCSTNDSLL

Row | β2 Int Act | SMILES
1 | 0.94 | Cl.O=C(CCOCCc1ccccc1F)N(CCNCCc1ccc(O)c2[nH]c(=O)ccc12)C1CCCCC1 [Example 73, N-Cyclohexyl-3-(2-fluorophenethoxy)-N-(2-(2-(8-hydroxy-2-oxo-1,2-dihydroquinolin-5-yl)ethylamino)ethyl)propanamide hydrochloride]
2 | 0.97 | O=C1COc2c(CCNCCN(C(=O)CCOCCc3cccc(F)c3)C3CCCCC3)ccc(O)c2N1 [Example 74, N-Cyclohexyl-3-(3-fluorophenethoxy)-N-(2-(2-(5-hydroxy-3-oxo-3,4-dihydro-2H-benzo[b][1,4]oxazin-8-yl)ethylamino)ethyl)propanamide trifluoroacetate]
3 | 0.96 | O=C1COc2c(CCNCCN(C(=O)CCOCCc3ccc(F)cc3)C3CCCCC3)ccc(O)c2N1 [Example 75, N-Cyclohexyl-3-(4-fluorophenethoxy)-N-(2-(2-(5-hydroxy-3-oxo-3,4-dihydro-2H-benzo[b][1,4]oxazin-8-yl)ethylamino)ethyl)propanamide trifluoroacetate]
4 | 1.1 | O=C1COc2c(CCNCCN(C(=O)CCOCCc3ccccc3F)C3CCCCC3)ccc(O)c2N1 [Example 76, N-Cyclohexyl-3-(2-fluorophenethoxy)-N-(2-(2-(5-hydroxy-3-oxo-3,4-dihydro-2H-benzo[b][1,4]oxazin-8-yl)ethylamino)ethyl)propanamide trifluoroacetate]
5 | 0.97 | O=C1COc2c(CCNCCN(C(=O)CCOCCc3cccc(Cl)c3)C3CCCCC3)ccc(O)c2N1 [Example 77, 3-(3-Chlorophenethoxy)-N-cyclohexyl-N-(2-(2-(5-hydroxy-3-oxo-3,4-dihydro-2H-benzo[b][1,4]oxazin-8-yl)ethylamino)ethyl)propanamide trifluoroacetate]
6 | 0.92 | CC[C@@H](C)N(CCNCCc1ccc(O)c2[nH]c(=O)ccc12)C(=O)CCOCCc1ccccc1.Cl [Example 79, (R)—N-sec-Butyl-N-(2-(2-(8-hydroxy-2-oxo-1,2-dihydroquinolin-5-yl)ethylamino)ethyl)-3-phenethoxypropanamide hydrochloride]
